The experiment deals with HBV (hepatitis B virus) in HepG2.2.15 cells. Kind of experiment: Cell-based anti-viral activity assay (HBV DNA in supernatant by quantitative PCR). The note with it: 120 h, anti-HBV activity, HepG2.2.15 cells, 5 days, read-out: EC50 (HepG2.2.15). How it is done: Cell-Based Anti-Viral Activity Assay
The Invention determined the anti-HBV (hepatitis B virus) activity of compounds in HepG2.2.15 cells (Table 1).
HepG2.2.15 is a cell line stably transfected with the HBV genome. HepG2.2.15 cells were cultured in DMEM (1X) with 10% fetal bovine serum (Corning), 100 U penicillin (Gibico), 100 μg/mL streptomycin (Gibico), 250 μg/mL geneticin (Gibco) and GlutaMAXTM-I medium (Invitrogen).
HepG2.2.15 cells were seeded into 96-well plates (4×10^4 cells in 100 μL of medium per well) and incubated overnight at 37° C. The test compounds were weighed and prepared as 10 mM stock solution with DMSO. The stock solutions of the compounds were diluted by a gradient of 3.16 times with DMSO, and then diluted by a gradient of 3.16 times with medium for 50 times. Finally, the diluted compound solutions were added to the cell plate with a total volume of 200 μL and the final DMSO concentration was 1%. The 96-well culture plates loaded with drugs were transferred to an incubator at 37° C. for 5 days. […] nucleic acid releasing agent was added to 96-well PCR reaction plate, and 2 μL of cell supernatant or HBV quantitative standards were added to the corresponding Wells. Centrifuged the plates to fully mix, and incubated at room temperature for 10 min to fully release nucleic acid. Quantified HBV DNA content by fluorescent quantitative PCR (CFX Connect Real-Time System) using Sanxiang Bio hepatitis B virus fluorescent quantitative diagnostic kit.
The standard curve was established by taking the logarithm of the copy number (IU/ml) of the HBV standard sample (log 10) as the abscordinate and the corresponding CT value as the ordinate. The copy number of the sample was calculated according to the corresponding CT of the positive sample and the standard curve, and the percentage of inhibition rate was calculated as follows: • % Inhibition=100-100*(sample HBV copy number−high concentration reference compound column HBV copy number)/DMSO column HBV copy number−high concentration reference compound column HBV copy number).

On to `CCOC(=O)C1=C(CN2CCN3C(=O)N(C45CC(CN6CCCC6=O)(C4)C5)C[C@@H]3C2)NC(c2nccs2)=N[C@H]1c1cccc(F)c1C` [Compound 25, Ethyl (S)-4-(3-Fluoro-2-Methylphenyl)-6-(((S)-3-Oxo-2-(3-((2-Oxopyrrolidin-1-Yl)Methyl)Bicyclo[1.1.1]Pentan-1-Yl)Hexahydroimidazo[1,5-a]Pyrazin-7(1H)-Yl)Methyl)-2-(Thiazol-2-Yl)-1,4-Dihydropyrimidine-5-Carboxylate], for which the EC50 was 2 nM.
As to `CCOC(=O)C1=C(CN2CCN3C(=O)N(C45CC(C(=O)NC)(C4)C5)C[C@@H]3C2)NC(c2nccs2)=N[C@H]1c1cccc(F)c1C` [Compound 26, Ethyl (S)-4-(3-Fluoro-2-Methylphenyl)-6-(((S)-2-(3-(Methylcarbamoyl)Bicyclo[1.1.1]Pentan-1-Yl)-3-Oxohexahydroimidazo[1,5-a]Pyrazin-7(1H)-Yl)Methyl)-2-(Thiazol-2-Yl)-1,4-Dihydropyrimidine-5-Carboxylate], the EC50 turned out to be 5 nM.
With `CCOC(=O)C1=C(CN2CCN3C(=O)N(C45CC(C(=O)N6CCOCC6)(C4)C5)C[C@@H]3C2)NC(c2nccs2)=N[C@H]1c1cccc(F)c1C` [Compound 27, Ethyl (S)-4-(3-Fluoro-2-Methylphenyl)-6-(((S)-2-(3-(Morpholine-4-Carbonyl)Bicyclo[1.1.1]Pentan-1-Yl)-3-Oxohexahydroimidazo[1,5-a]Pyrazin-7(1H)-Yl)Methyl)-2-(Thiazol-2-Yl)-1,4-Dihydropyrimidine-5-Carboxylate] the figure was 6 nM; with `CCOC(=O)C1=C(CN2CCN3C(=O)N(C45CC(C(C)C(=O)O)(C4)C5)C[C@@H]3C2)NC(c2nccs2)=N[C@H]1c1cccc(F)c1C` (stereo partly drawn) [Compound 30, 2-(3-((S)-7-(((S)-5-(Ethoxycarbonyl)-6-(3-Fluoro-2-Methylphenyl)-2-(Thiazol-2-Yl)-3,6-Dihydropyrimidin-4-Yl)Methyl)-3-Oxohexahydroimidazo[1,5-a]Pyrazin-2(3H)-Yl)Bicyclo[1.1.1]Pentan-1-Yl)Propanoic Acid], 11 nM.
In the case of `CCOC(=O)C1=C(CN2CCN3C(=O)N(C45CC(CO)(C4)C5)C[C@@H]3C2C(=O)OCC)NC(c2nccs2)=N[C@H]1c1cccc(F)c1C` (stereo partly drawn) [Compound 31, Ethyl (8aR)-7-(((S)-5-(Ethoxycarbonyl)-6-(3-Fluoro-2-Methylphenyl)-2-(Thiazol-2-Yl)-3,6-Dihydropyrimidin-4-Yl)Methyl)-2-(3-(Hydroxymethyl)Bicyclo[1.1.1]Pentan-1-Yl)-3-Oxooctahydroimidazo[1,5-a]Pyrazine-8-Carboxylate], the EC50 was 25 nM.
As for `CCOC(=O)C1=C(CN2CCN3C(=S)N(C45CC(C(=O)O)(C4)C5)C[C@@H]3C2)NC(c2nccs2)=N[C@H]1c1cccc(F)c1C` [Compound 32, 3-((S)-7-(((S)-5-(Ethoxycarbonyl)-6-(3-Fluoro-2-Methylphenyl)-2-(Thiazol-2-Yl)-3,6-Dihydropyrimidin-4-Yl)Methyl)-3-Thioxohexahydroimidazo[1,5-a]Pyrazin-2(3H)-Yl)Bicyclo[1.1.1]Pentane-1-Carb Oxylic Acid], the EC50 was found to be 30 nM.
Consider `CCOC(=O)C1=C(CN2CCN3C(=O)N(C45CC(CC(=O)O)(C4)C5)C[C@@H]3C2)NC(c2nccs2)=N[C@H]1c1cccc(F)c1Cl` [Compound 34, 2-(3-((S)-7-(((R)-6-(2-Chloro-3-Fluorophenyl)-5-(Ethoxycarbonyl)-2-(Thiazol-2-Yl)-3,6-Dihydropyrimidin-4-Yl)Methyl)-3-Oxohexahydroimidazo[1,5-a]Pyrazin-2(3H)-Yl)Bicyclo[1.1.1]Pentan-1-Yl)Acetic Acid], for which the EC50 amounted to 22 nM.
In the case of `CCOC(=O)C1=C(CN2CCN3C(=O)N(C45CC(CC(=O)O)(C4)C5)C[C@@H]3C2)NC(c2nccs2)=N[C@H]1c1ccc(F)c(F)c1` [Compound 36], the EC50 was 48 nM.
For the compound `COC(=O)C1=C(CN2CCN3C(=O)N(C45CC(CC(=O)O)(C4)C5)C[C@@H]3C2)NC(c2nccs2)=N[C@H]1c1ccc(F)cc1Br` [Compound 39, 2-(3-((S)-7-(((R)-6-(2-Bromo-4-Fluorophenyl)-5-(Methoxycarbonyl)-2-(Thiazol-2-Yl)-3,6-Dihydropyrimidin-4-Yl)Methyl)-3-Oxohexahydroimidazo[1,5-a]Pyrazin-2 (3H)-Yl)Bicyclo[1.1.1]Pentane-1-Yl)Acetic Acid], the EC50 turned out to be 32 nM.
As to `CCOC(=O)C1=C(CN2CCN3C(=O)N(C45CC(CC(C)(C)C(=O)O)(C4)C5)C[C@@H]3C2)NC(c2nccs2)=N[C@H]1c1ccc(F)cc1Cl` [Compound 40], the EC50 worked out at 12 nM.
The result for `COC(=O)C1=C(CN2CCN3C(=O)N(C45CC(CC(=O)O)(C4)C5)C[C@@H]3C2)NC(c2nccs2)=N[C@H]1c1ccc(F)c(F)c1C` [Compound 41, 2-(3-((S)-7-(((S)-6-(3,4-Difluoro-2-Methylphenyl)-5-(Methoxycarbonyl)-2-(Thiazol-2-Yl)-3,6-Dihydropyrimidin-4-Yl)Methyl)-3-Oxohexahydroimidazo[1,5-a]Pyrazin-2(3H)-Yl)Bicyclo[1.1.1]Pentan-1-Yl)Acetic Acid] reads 8 nM; that for `CCOC(=O)C1=C(CN2CCN3C(=O)N(C45CC(C(C)(C)C(=O)O)(C4)C5)C[C@@H]3C2)NC(c2nccs2)=N[C@H]1c1cccc(F)c1C` [Compound 42], 11 nM.
With `CCOC(=O)C1=C(CN2CCN3C(=O)N(C45CC(CC(=O)O)(C4)C5)C[C@@H]3[C@H]2COC)NC(c2nccs2)=N[C@H]1c1cccc(F)c1C` [Compound 43, 2-(3-((8S,8aR)-7-(((S)-5-(Ethoxycarbonyl)-6-(3-Fluoro-2-Methylphenyl)-2-(Thiazol-2-Yl)-3,6-Dihydropyrimidin-4-Yl)Methyl)-8-(Methoxymethyl)-3-Oxohexahydroimidazo[1,5-a]Pyrazin-2(3H)-Yl)Bicyclo[1.1.1]Pentan-1-Yl)Acetic Acid], the concentration giving a half-maximal response (EC50) turned out to be 197 nM.
Consider `CCOC(=O)C1=C(CN2CCN3C(=O)N(C45CC(C(O)C(=O)O)(C4)C5)C[C@@H]3C2)NC(c2nccs2)=N[C@H]1c1cccc(F)c1C` (stereo partly drawn) [Compound 50, 2-(3-((S)-7-(((S)-5-(Ethoxycarbonyl)-6-(3-Fluoro-2-Methylphenyl)-2-(Thiazol-2-Yl)-3,6-Dihydropyrimidin-4-Yl)Methyl)-3-Oxohexahydroimidazo[1,5-a]Pyrazin-2(3H)-Yl)Bicyclo[1.1.1]Pentan-1-Yl)-2-Hydroxyacetic Acid], for which the EC50 amounted to 3 nM.
The result for `CCOC(=O)C1=C(CN2CCN3C(=O)N(C45CC(C(OC)C(=O)O)(C4)C5)C[C@@H]3C2)NC(c2nccs2)=N[C@H]1c1cccc(F)c1C` (stereo partly drawn) [Compound 51, 2-(3-((S)-7-(((S)-5-(Ethoxycarbonyl)-6-(3-Fluoro-2-Methylphenyl)-2-(Thiazol-2-Yl)-3,6-Dihydropyrimidin-4-Yl)Methyl)-3-Oxohexahydroimidazo[1,5-a]Pyrazin-2(3H)-Yl)Bicyclo[1.1.1]Pentan-1-Yl)-2-Methoxyacetic Acid] reads 139 nM; that for `CCOC(=O)C1=C(CN2CCN3C(=O)N(C45CCC(C(=O)O)(CC4)CC5)C[C@@H]3C2)NC(c2nccs2)=N[C@H]1c1ccc(F)c(F)c1C` [Compound 54], 3 nM.

The values are drawn from US20240166649A1, “DIHYDROPYRIMIDINE COMPOUND, PREPARATION METHOD THEREFOR AND APPLICATION THEREOF” (Shanghai Visonpharma Co., Ltd., priority 2021, published 2024).
